According to patent US8101605B2, “SHIP1 modulators and methods related thereto” (Aquinox Pharmaceuticals Inc., priority 2009, dated 2012):

Experiments:
[1] = test system: allergen-induced passive cutaneous anaphylaxis; test: Passive cutaneous anaphylaxis in rats; format: in vivo; settings: oral gavage
Procedure: The activity of representative compounds on passive cutaneous anaphylaxis in rats was evaluated according to the procedures disclosed by Goose et al., Immunology 16, 749-760, 1969, which is incorporated herein by reference in its entirety. To induce a passive cutaneous anaphylaxis, rats underwent dorsal intradermal inoculation with 50 μL of anti-ovalbumin-IgE. Sixteen hours after inoculation, all rats were administered test compound by oral gavage (PO). Sixty minutes after oral administration, rats were given a tail vein injection of 5 mg Evan's blue and 1 mg ovalbumin. Sixty minutes following the ovalbumin injection, rats were euthanized using CO2 inhalation. Subsequently, skin edema was visualized, measured and scored. When tested in this assay, representative Compound.

[2] = test system: Akt phosphorylation in Molt-4 (PTEN−/SHIP1+) cells; test: Akt phosphorylation in IGF-1 stimulated Molt-4 lymphocytes (western blot); format: cell-based; design: key: +: inhibits Akt phosphorylation at 10 μM; −: no effect on Akt phosphorylation at 10 μM; settings: 10 μM; IGF-1 stimulation
Procedure: (§1) Jurkat (PTEN−/SHIP1−) or Molt-4 (PTEN−/SHIP1+) cells were starved in serum free RPMI for overnight. In a 15 mL conical tube, 2-3 million serum starved cells (1 million cells per mL) were treated with various concentrations of test compound (0.1, 1, or 10 μM final in 0.1% DMSO) for 30 min at 37° C. followed by stimulation with 100 ng/mL of IGF-1 for 1 hour at 37° C. After stimulation, cells were washed once with ice-cold DPBS and lysed with Lysis Buffer (20 mM Tris-HCl, pH 7.5, 140 mM NaCl, 1% NP-40, Complete Mini Protease Inhibitor Cocktail, 10 mM NaF, 1 mM Na3VO4, 1 mM β-glycerolphosphate) on ice for 30 min with vortexing every 10 min. Samples were then centrifuged at 13,000 rpm for 20 min, and supernatants were collected as total cell lysate samples. Protein concentration was determined using bicinchonic acid assay, and about 15 μg of total protein from each sample was loaded and separated on a 4-12% Tris-Glycine gel. After SDS-PAGE, proteins were transferred from the gel to a nitrocellulose membrane. The membrane was blocked in 5% BSA in PBS containing 0.1% Tween-20 (PBS-T) for 1 hour at room temperature before probing with primary antibodies for overnight at 4° C. The following antibodies were used: mouse anti-SHIP1 (1:500 dilution; Santa Cruz, Calif., USA), rabbit anti-phospho-Akt(Ser473) (1:1000 dilution; Cell Signaling Technologies, MA, USA), rabbit anti-Akt (1:1000; Cell Signaling Technologies, MA, USA), and rabbit anti-actin (1:2000; Cell Signaling Technologies, MA, USA). The membrane was then incubated with goat anti-rabbit or anti-mouse secondary antibodies (1:3000) for 1 hour at room temperature. Target proteins on the membrane were detected with ECL solution and exposed on a film.
(§2) Scoring in Table 3 is expressed as follows: + (inhibits Akt phosphorylation at 10 μM); − (no effect on Akt phosphorylation at 10 μM).

[3] = test system: allergen-induced passive cutaneous anaphylaxis; test: Passive cutaneous anaphylaxis in mice; format: in vivo; settings: oral gavage, doses less than 20 mg/kg
Procedure: The activity of representative compounds on passive cutaneous anaphylaxis in mice was evaluated according to the procedures disclosed by Ovary, J Immunol 81, 355-357, 1958 and Halpern et al., Br J Pharmacol Chemother 20, 389-398, 1963, both of which are incorporated herein by reference in their entirety. To induce a passive cutaneous anaphylaxis, mice underwent intradermal ear inoculation on their right ear with 25 ng in 20 μL of anti-DNP-IgE. The left ears were untreated and served as negative controls. Twenty-four hours after inoculation, all mice were administered test compound by oral gavage (PO). Sixty minutes after oral administration, mice were given a tail vein injection of 2% Evan's blue (0.2 μm filtered, in 200 μL saline) followed by a second tail IV injection of 100 μg DNP-HSA (in 200 μL). Sixty minutes following the DNP-HSA injection, mice were euthanized using CO2 inhalation. Subsequently, ear biopsies were performed by taking four millimetre punches from both ears, which then underwent Evan's Blue extraction using formamide incubation in 96 well plates. Eighty μL of eluents were transferred to flat-bottom 96-well plates and absorbance read using SpectraMax M5 spectrophotometer (Molecular Devices, Sunnyvale, Calif., USA) at 620 nm. Background readings from all samples were taken at 740 nm and subtracted from the 620 nm readings. Data were reported as OD. […] Scoring in Table 4 is expressed as follows: + (1-30% inhibition); ++ (31-50% inhibition); +++ (>50% inhibition).

[4] = test system: Akt phosphorylation in Jurkat (PTEN−/SHIP1−) cells; test: Akt phosphorylation in IGF-1 stimulated Jurkat lymphocytes (western blot); format: cell-based; design: key: +: inhibits Akt phosphorylation at 10 μM; −: no effect on Akt phosphorylation at 10 μM; settings: 10 μM; IGF-1 stimulation
Procedure: as §1, §2

Row | SMILES | inhibition of allergen-induced passive cutaneous anaphylaxis ([1]; 30 mg/kg) [%] | inhibition of allergen-induced passive cutaneous anaphylaxis ([1]; 100 mg/kg) [%] | Akt phosphorylation, Molt-4 (SHIP1+) [2] | Scoring: inhibition of passive cutaneous anaphylaxis [3] | Akt phosphorylation, Jurkat (SHIP1−) [4]
1 | Cc1cc(O)cc2c1[C@]1(C)CC[C@H]3C(C)(C)CCC[C@]3(C)[C@H]1CO2 [Compound No. 6, (1R,10R,11S,16S)-1,3,11,15,15-pentamethyl-8-oxatetracyclo[8.8.0.0^2,7.0^11,16]octadeca-2,4,6-trien-5-ol] | 14 | 29 | + | ++ (31-50% inhibition) | −
2 | CC1(C)CCC[C@]2(C)[C@H]3CS(=O)(=O)c4cc(O)cc(O)c4[C@]3(C)CC[C@@H]12 [Compound No. 28, (1R,10R,11S,16S)-3,5-dihydroxy-1,11,15,15-tetramethyl-8-thiatetracyclo[8.8.0.0^2,7.0^11,16]octadeca-2,4,6-triene-8,8-dione] | 26 | 38 | + | +++ (>50% inhibition) | −
